Laboratory results: ChEMBL document CHEMBL1121503, “Estrogen receptor based imaging agents. 2. Synthesis and receptor binding affinity of side-chain halogenated hexestrol derivatives” (J Med Chem, 1980)

molecular target: Estrogen receptor (Ovis aries) (UniProt P49885+Q9TU15)

SMILES	RAC
Oc1ccc(/C(=C(/c2ccccc2)C(F)(F)F)C(F)(F)F)cc1	10
Oc1ccc(/C(=C(/c2ccc(O)cc2)C(F)(F)F)C(F)(F)F)cc1	48
Oc1ccc(C(=C2CCCCC2)c2ccc(O)cc2)cc1	32
Oc1ccc(C(=C(C(F)(F)F)C(F)(F)F)c2ccccc2)cc1	21

The remaining lines, values ahead:

RAC	SMILES
113	CCC(c1ccc(O)cc1)C(CCCl)c1ccc(O)cc1 (stereo not given)
60	CCC(c1ccc(O)cc1)C(CCI)c1ccc(O)cc1 (stereo not given)
71	CCC(c1ccc(O)cc1)C(CCBr)c1ccc(O)cc1 (stereo not given)
129	CCC(c1ccc(O)cc1)C(CCF)c1ccc(O)cc1 (stereo not given)
20	C/C(=C(/C)c1ccc(O)cc1)c1ccc(O)cc1
300	CC[C@H](c1ccc(O)cc1)[C@@H](CC)c1ccc(O)cc1
